{"source": "patent US4996227A", "about": "“3-(heteroarylalkyene)- and 3-(arylalkylene)-2,4(3H,5H)-heterocyclic diones as cancer chemotherapy drugs” (priority 1989, dated 1991)", "key": {"[1]": {"system": "K562 cells (human chronic granulocytic leukemia)", "assay": "K562 human leukemia cell suspension culture, cell concentration", "format": "cell-based", "conditions": "1 ug/ml", "protocol": "In this example, 1 mcg/ml of 3[[5-methyl-2-thienyl]methylene]2, 4 (3H, 5H) furandione was compared to 1 mcg/ml of 3[[3-methyl-2-thienyl]methylene]2, 4 (3H, 5H) furandione.\n(§1) A conventionally available cell line (K562) derived from human chronic granulocytic leukemia was employed in an in vitro procedure. The leukemia cell line was cultured in a suspension of RPMI 1640 plus 10% fetal calf serum. All initial cell concentrations for the cultures were 0.65 times 10^5 cells/ml. Four separate suspension cultures were employed with the first suspension culture having no additions. The second suspension culture included 100 microliters of the solvent DMSO per 10 ml of culture (control). The third culture contained 1 ug/ml of 3[[5-methyl-2 thienyl]methylene]-2, 4 (3H, 5H) furandione and the fourth culture contained 1 ug/ml of 3[[3-methyl-2-thienyl]methylene]-2, 4 (3H, 5H) furandione. The cell concentration of each of the four cultures was determined. After three days and again after five days."}, "healthy mice [2]": {"system": "healthy mice", "assay": "Toxicology testing in healthy mice: pathological evaluation", "format": "in vivo", "protocol": "(§2) The purpose of this example was to determine approximate toxicity of the compound 3[(5-methyl-2-thienyl) methylene]-2,4(3H,5H)-furandione in healthy mice. The in vivo concentrations employed in the example were selected by using the in vitro results in the Human Tumor Stem Cell Assay as a guide. The compound was given to the mice by means of intra-peritoneal injection. In addition to a control group which was injected with the appropriate carrier solution without drug, three test groups with calculated plasma concentrations of 1, 10 and 100 mcg/ml (low, medium and high concentrations) were prepared. Based upon the results from Table 1, the three test groups represent low, medium and high concentrations of drug dosages. The highest concentration of 100 mcg/ml is about 10 times the predicted effective dose (in vivo) of tumoricidal activity. Each group contained eight animals. Blood was extracted from four animals in each group two days after the intraperitoneal injection and routine hematology (i.e., a hemoglobin concentration, a white blood cell count, and a neutrophil count) procedures were performed.\nAs previously stated, half of the animals in each group were sacrificed after one week (Day 7), and the remaining animals were sacrificed after two weeks (Day 14). […]"}, "healthy mice [3]": {"system": "healthy mice", "assay": "Toxicology testing in healthy mice: deaths / LD50", "format": "in vivo", "conditions": "i.p.", "protocol": "as §2\nHalf of the animals in each group were sacrificed after one week (Day 7), and the remaining animals in each group were sacrificed after two weeks (Day 14). Routine hematology was performed at the time of sacrifice."}, "human tumor H5340 **": {"system": "human tumor H5340 **", "assay": "Human Tumor Stem Cell Assay, colony growth after one hour exposure", "format": "cell-based", "conditions": "1 h"}, "[4]": {"system": "KS62 strain stem-cell human leukemia cells", "assay": "Inhibition of human leukemia cell growth in vitro, as done in Example 3", "format": "cell-based", "conditions": "Homo sapiens", "protocol": "as §1\nIn this example, aliquots of 1.0, 5.0 and 10.0 mcg/ml of each of the family compounds was prepared and assayed against KS62 strain stem-cell human leukemia cells in an in vitro procedure as done in Example 3 above."}}}
{"smiles": "Cc1ccc(C=C2C(=O)COC2=O)s1", "note": "[Compound 4, 3[(5-methyl-2-thienyl)methylene]2,4(3H,5H)-furandione]", "values": [{"measurement": "effect on leukemia culture", "setting": "[1]", "value": "very effective against the leukemia culture as demonstrated by the remarkable decrease in cell concentration"}, {"measurement": "Cell Conc.", "setting": "[1]; 3 Days", "value": 70000, "unit": "mL⁻¹"}, {"measurement": "Cell Conc.", "setting": "[1]; 5 Days", "value": 50000, "unit": "mL⁻¹"}, {"measurement": "pathology of organs, bone, brain, etc.", "setting": "healthy mice [2]; all dose groups, 7 or 14 days", "value": "not remarkably altered within the testing period"}, {"measurement": "pathology of organs, bone, etc., vs low concentration and control groups", "setting": "healthy mice [2]; high concentrations", "value": "do not appear to affect any of the organs, bone, etc. of the test animals to any lesser or greater degree than the low concentration drug group or the control group"}, {"measurement": "deaths due to the compound", "setting": "healthy mice [3]; 1, 10, 100 mcg/ml calculated plasma, testing period", "value": "no deaths"}, {"measurement": "LD50", "setting": "healthy mice [3]; as calculated plasma concentration", "value": "> 100", "unit": "µg/mL"}, {"measurement": "percentage of growth (colonies vs control)", "setting": "human tumor H5340 **; HI: furandione 1.0 mcg/ml, standard drugs 50% of peak plasma concentration", "value": 50, "unit": "%"}, {"measurement": "percentage of growth (colonies vs control)", "setting": "human tumor H5340 **; LO: furandione 0.2 mcg/ml, standard drugs 10% of peak plasma concentration", "value": 62, "unit": "%"}, {"measurement": "inhibition at 1 µg/mL", "setting": "[4]; 1.0 mcg/ml", "value": 32, "unit": "%"}, {"measurement": "inhibition at 5 µg/mL", "setting": "[4]; 5.0 mcg/ml", "value": 97, "unit": "%"}, {"measurement": "inhibition at 10 µg/mL", "setting": "[4]; 10.0 mcg/ml", "value": 100, "unit": "%"}]}
